{"source": "patent US5811465A", "about": "“Composition, device, and method for electrotransport agent delivery” (priority 1997, dated 1998)", "key": {"[1]": {"conditions": "for Normalized Ketoprofen Flux (after 5 hrs): control = 1.00, 100 μA/cm^2, about 32° C.", "protocol": "(§1) Human cadaver skin was prepared by first removing about 1 mm thick skin samples with an electric dermatome in the form of strips. The skin strips were placed in polyethylene bags, sealed and placed in a refrigerator at about 4° C. for temporary storage. Prior to use in the electrotransport cell, the skin strips were placed in one-liter beakers containing water at 60° C. for about 90 seconds with gentle stirring. Then, the skin strips were removed and placed onto the absorbent side of a piece of BENCHKOTE™ fabric with the dermis side down. Using flat tipped tweezers to retain the dermis, the epidermis was removed from each strip with a round-tip spatula. Each epidermis, stratum comeum side up, was transferred to a PYREX™ glass tray which was filled with water. Each floating epidermis was stretched essentially flat. After removal from the water 2.22 cm (7/8 in.) diameter disks of each epidermis were punched out of areas having negligible surface damage. The disks were stored at 4° C. in a sealed container with water droplets to maintain their moisture.\n(§2) The human cadaver epidermis disks were mounted between compartments 44 and 46 of the electrotransport permeation cell shown in FIG. 2. The cell was comprised of a polycarbonate support structure 52, including O-ring seals 54, and the assembly was held together with stainless steel bolt and nut 56. The human skin disk 42 separated the anodic compartment 44 and the cathodic compartment 46. A silver anode 48 was placed adjacent to the anodic compartment 44, and a silver chloride cathode 50 was placed adjacent to the cathodic compartment 46. The area of the human skin disk 42 exposed for transport was about 1.26 cm^2 and the volume of each of compartments 44 and 46 was about 2 ml. The electrodes 48, 50 were electrically connected to a galvanostat (not shown in FIG. 2), which can be set to apply the voltage necessary to achieve a constant predetermined level of electric current. The galvanostat was set to apply a current of 126 μA, ie, 100 μA/cm^2 across electrodes 48, 50 throughout each test.\n(§3) Dulbecco's phosphate buffered saline (about 0.15M NaCl with minor amounts of other ions, pH 7.0) was placed in the anodic receptor compartment 44. The skin resistance was calculated from the voltages applied by the galvanostat according to Ohm's law, ie, Rskin =ΔV/i, where ΔV is the potential applied by the galvanostat, and i is the applied current, 126 microamps.\n(§4) The system was maintained at about 32° C. by a Haake Model D1 heating block/water bath. The cell voltage was monitored over the entire procedure, and then averaged. The skin resistance was calculated from Ohm's law as described above using the measured ΔV.\n(§5) The samples were automatically taken from the receptor compartment every one to two hours, except for overnight experimentation, with an Isco Model 2230 autosampler and a metering pump. […] Each run was conduced in triplicate, including the control, to minimize error. All cells were set up with tissue from the same cadaver. The selected permeation enhancer was placed in the donor compartment, while the control cell's donor compartment contained no enhancer.\n(§6) Thus, the flux control and the skin conductivity control were each assigned a value of 1, and the flux/conductivity values obtained after addition of each permeation enhancer to the donor solution are normalized to the control."}, "[2]": {"test": "Electrical conductivity of human cadaver skin during electrotransport with permeation enhancer (Example 1)", "conditions": "for Normalized Skin Conductivity (after 5 hrs): control = 1.00, 100 μA/cm^2, about 32° C.; for enhancement (skin conductivity), in words: comparison among tested enhancers, with/without ethanol", "protocol": "as §1, §2, §3, §4, §5, §6"}, "[3]": {"test": "Water solubility of permeation enhancer", "type": "physicochemical", "conditions": "at about 20° C."}, "[4]": {"conditions": "10 mM enhancer, without ethanol, pH 7.20 (DMDDA), 6.90 (DDPDCl)"}, "[5]": {"conditions": "25 mM enhancer in 20% Ethanol, pH 7.05"}, "[6]": {"conditions": "25 mM enhancer, without ethanol, pH 6.90"}, "[7]": {"conditions": "1,2-dodecane diol with vs without ethanol"}, "[8]": {"conditions": "10 mM enhancer in 20% Ethanol, pH 7.30 (ODAA), 7.00 (A3)"}}, "note": "Read-outs that look alike come from different tables or passages of the source."}
{"molecule": "CCCCCCCCCCCCN(C)C", "note": "[DMDDA, N,N-dimethyl-dodecylamine]", "values": [{"measurement": "Normalized Ketoprofen Flux (after 5 hrs)", "setting": "[1]; [4]", "result": 1.37}, {"measurement": "Normalized Skin Conductivity (after 5 hrs)", "setting": "[2]; [4]", "result": 2.71}]}
{"molecule": "CCCCCCCCCCC(O)CO", "note": "(stereo not shown) [1,2-Dodecanediol, 1,2-dodecane diol]", "values": [{"measurement": "Normalized Ketoprofen Flux (after 5 hrs)", "setting": "[1]; [5]", "result": 1.95}, {"measurement": "Normalized Ketoprofen Flux (after 5 hrs)", "setting": "[1]; [6]", "result": 1.99}, {"measurement": "effect of ethanol as solvent on ketoprofen flux", "setting": "[1]; [7]", "result": "did not affect ketoprofen flux"}, {"measurement": "ketoprofen flux enhanced, relative to control value (in words)", "setting": "[1]; addition of 1,2-dodecane diol", "result": "about double"}, {"measurement": "enhancement (flux), in words", "setting": "[1]; ketoprofen flux, comparison among tested enhancers, with/without ethanol", "result": "effective for enhancing both flux and skin conductivity in the presence and in the absence of ethanol"}, {"measurement": "Normalized Skin Conductivity (after 5 hrs)", "setting": "[2]; [5]", "result": 6.81}, {"measurement": "Normalized Skin Conductivity (after 5 hrs)", "setting": "[2]; [6]", "result": 5.69}, {"measurement": "increase in skin conductivity by presence of ethanol", "setting": "[2]; [7]", "result": "about 20%"}, {"measurement": "enhancement of skin conductivity relative to the other permeation enhancers", "setting": "[2]; alone without ethanol", "result": "more than double"}, {"measurement": "enhancement (skin conductivity), in words", "setting": "[2]", "result": "effective for enhancing both flux and skin conductivity in the presence and in the absence of ethanol"}, {"measurement": "water solubility", "setting": "[3]", "result": "greater than 25 mM"}]}
{"molecule": "CCCCCCCCCCCC(=O)OCCCn1ccn(C)c1=O", "note": "[A3, 1-methyl-4-imidazoline-2-one-3-propylenedodecanoate]", "values": [{"measurement": "Normalized Ketoprofen Flux (after 5 hrs)", "setting": "[1]; [8]", "result": 1.76}, {"measurement": "Normalized Skin Conductivity (after 5 hrs)", "setting": "[2]; [8]", "result": 5.93}]}
{"molecule": "CCCCCCCCCCCCO", "note": "[Dodecanol, dodecanol]", "values": [{"measurement": "enhancement (flux), in words", "setting": "[1]", "result": "greatest enhancement"}, {"measurement": "Normalized Skin Conductivity (after 5 hrs)", "setting": "[2]; [5]", "result": 34.7}, {"measurement": "enhancement (skin conductivity), in words", "setting": "[2]", "result": "greatest enhancement"}]}
{"molecule": "octyl-N,N-dimethyl-dodecylamino acetate [ODAA]", "values": [{"measurement": "Normalized Skin Conductivity (after 5 hrs)", "setting": "[2]; [8]", "result": 4.61}]}
